According to US11053204B2, “Pyrimidinyloxy benzene derivatives as herbicides” (FMC Corporation, priority 2015, dated 2021):

Key:
Type in all cases: in vivo
[1] = tested on: field poppy (Papaver rhoeas); assay: Test C postemergence, plant response rating; conditions: for Field Poppy plant response rating: scale 0 to 100 (0 no effect, 100 complete control)
Procedure, shortened: (§1)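 After sowing in loam–sand blend or silt loam, pots were sprayed preemergence; separately grown 1- to 4-leaf plants were sprayed postemergence. Following 13 to 15 d under greenhouse conditions, injury was rated visually on a 0 to 100 scale.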

[2] = tested on: windgrass (Apera spica-venti); assay: Test C postemergence, plant response rating
Procedure, shortened: as §1

[3] = tested on: nightshade (eastern black nightshade, Solanum ptycanthum); assay: Test C postemergence, plant response rating; conditions: for Nightshade plant response rating: scale 0 to 100 (0 no effect, 100 complete control)
Procedure, shortened: as §1

[4] = tested on: surinam grass (Brachiaria decumbens); assay: Test C postemergence, plant response rating
Procedure, shortened: as §1

[5] = tested on: field violet (Viola arvensis); assay: Test C postemergence, plant response rating; conditions: for Field Violet plant response rating: scale 0 to 100 (0 no effect, 100 complete control)
Procedure, shortened: as §1

[6] = tested on: geranium, cutleaf (cutleaf geranium, Geranium dissectum); assay: Test C postemergence, plant response rating; conditions: for Geranium, Cutleaf plant response rating: scale 0 to 100 (0 no effect, 100 complete control)
Procedure, shortened: as §1

[7] = tested on: Canada thistle (Cirsium arvense); assay: Test C postemergence, plant response rating; conditions: for Canada Thistle plant response rating: scale 0 to 100 (0 no effect, 100 complete control)
Procedure, shortened: as §1

[8] = tested on: buckwheat, wild (wild buckwheat, Polygonum convolvulus); assay: Test C postemergence, plant response rating; conditions: for Buckwheat, Wild plant response rating: scale 0 to 100 (0 no effect, 100 complete control)
Procedure, shortened: as §1

[9] = tested on: wild poinsettia (Euphorbia heterophylla); assay: Test C postemergence, plant response rating; conditions: for Poinsettia, Wild plant response rating: scale 0 to 100 (0 no effect, 100 complete control)
Procedure, shortened: as §1

[10] = tested on: johnsongrass (Sorghum halepense); assay: Test C postemergence, plant response rating; conditions: for Johnsongrass plant response rating: scale 0 to 100 (0 no effect, 100 complete control)
Procedure, shortened: as §1

[11] = tested on: speedwell (bird's-eye speedwell, Veronica persica); assay: Test C postemergence, plant response rating; conditions: for Speedwell plant response rating: scale 0 to 100 (0 no effect, 100 complete control)
Procedure, shortened: as §1

[12] = tested on: wild mustard (Sinapis arvensis); assay: Test C postemergence, plant response rating; conditions: for Mustard, Wild plant response rating: scale 0 to 100 (0 no effect, 100 complete control)
Procedure, shortened: as §1

[13] = tested on: pigweed, palmer (palmer pigweed, Amaranthus palmeri); assay: Test C postemergence, plant response rating; conditions: for Pigweed, Palmer plant response rating: scale 0 to 100 (0 no effect, 100 complete control)
Procedure, shortened: as §1

[14] = tested on: pigweed (Amaranthus retroflexus); assay: Test C preemergence, plant response rating; conditions: Preemergence
[15] = tested on: johnsongrass (Sorghum halepense); assay: Test C preemergence, plant response rating
[16] = tested on: pigweed (Amaranthus retroflexus); assay: Test C postemergence, plant response rating; conditions: for Plant response rating, Pigweed / pest or weed control at 16 g/ha / pest or weed control at 31 g/ha: scale 0 to 100; for Pigweed plant response rating / pest or weed control at 62 g/ha / pest or weed control at 125 g/ha: scale 0 to 100 (0 no effect, 100 complete control); for pest or weed control at 16 g/ha / pest or weed control at 31 g/ha / pest or weed control at 62 g/ha / pest or weed control at 125 g/ha: Amaranthus retroflexus, post-emergence
Procedure, shortened: as §1

[17] = 125 g ai/ha, scale 0 to 100 (0 no effect, 100 complete control)

Compound: FC(F)(F)CCCCc1c(Cl)cccc1Oc1ncc(Cl)cn1 [Compound 137]
- Plant response rating, Field Poppy ([1]; 16 g ai/ha, scale of 0 to 100): 85
- Plant response rating, Field Poppy ([1]; 31 g ai/ha, scale 0 to 100): 95
- Field Poppy plant response rating ([1]; 62 g ai/ha): 100
- Field Poppy plant response rating ([1]; 125 g ai/ha): 100
- Plant response rating, Windgrass ([2]; 16 g ai/ha, scale of 0 to 100): 10
- Plant response rating, Windgrass ([2]; 31 g ai/ha, scale 0 to 100): 10
- Windgrass plant response rating [2, 17]: 45
- Plant response rating, Nightshade ([3]; 16 g ai/ha, scale of 0 to 100): 60
- Plant response rating, Nightshade ([3]; 31 g ai/ha, scale 0 to 100): 80
- Nightshade plant response rating ([3]; 62 g ai/ha): 90
- Nightshade plant response rating ([3]; 125 g ai/ha): 90
- Plant response rating, Surinam Grass ([4]; 16 g ai/ha, scale of 0 to 100): 5
- Plant response rating, Surinam Grass ([4]; 31 g ai/ha, scale 0 to 100): 10
- Surinam Grass plant response rating [4, 17]: 20
- Plant response rating, Field Violet ([5]; 16 g ai/ha, scale of 0 to 100): 65
- Plant response rating, Field Violet ([5]; 31 g ai/ha, scale 0 to 100): 70
- Field Violet plant response rating ([5]; 62 g ai/ha): 85
- Field Violet plant response rating ([5]; 125 g ai/ha): 85
- Plant response rating, Geranium, Cutleaf ([6]; 16 g ai/ha, scale of 0 to 100): 10
- Plant response rating, Geranium, Cutleaf ([6]; 31 g ai/ha, scale 0 to 100): 25
- Geranium, Cutleaf plant response rating ([6]; 62 g ai/ha): 30
- Geranium, Cutleaf plant response rating ([6]; 125 g ai/ha): 35
- Plant response rating, Canada Thistle ([7]; 16 g ai/ha, scale of 0 to 100): 75
- Plant response rating, Canada Thistle ([7]; 31 g ai/ha, scale 0 to 100): 85
- Canada Thistle plant response rating ([7]; 62 g ai/ha): 98
- Canada Thistle plant response rating ([7]; 125 g ai/ha): 100
- Plant response rating, Buckwheat, Wild ([8]; 16 g ai/ha, scale of 0 to 100): 70
- Plant response rating, Buckwheat, Wild ([8]; 31 g ai/ha, scale 0 to 100): 75
- Buckwheat, Wild plant response rating ([8]; 62 g ai/ha): 98
- Buckwheat, Wild plant response rating ([8]; 125 g ai/ha): 90
- Plant response rating, Poinsettia, Wild ([9]; 16 g ai/ha, scale of 0 to 100): 15
- Plant response rating, Poinsettia, Wild ([9]; 31 g ai/ha, scale 0 to 100): 65
- Poinsettia, Wild plant response rating ([9]; 62 g ai/ha): 65
- Poinsettia, Wild plant response rating ([9]; 125 g ai/ha): 75
- Plant response rating, Johnsongrass ([10]; 16 g ai/ha, scale of 0 to 100): 5
- Plant response rating, Johnsongrass ([10]; 31 g ai/ha, scale 0 to 100): 10
- Johnsongrass plant response rating ([10]; 62 g ai/ha): 10
- Johnsongrass plant response rating ([10]; 125 g ai/ha): 25
- Plant response rating, Speedwell ([11]; 16 g ai/ha, scale of 0 to 100): 75
- Plant response rating, Speedwell ([11]; 31 g ai/ha, scale 0 to 100): 80
- Speedwell plant response rating ([11]; 62 g ai/ha): 100
- Speedwell plant response rating ([11]; 125 g ai/ha): 100
- Plant response rating, Mustard, Wild ([12]; 16 g ai/ha, scale of 0 to 100): 100
- Plant response rating, Mustard, Wild ([12]; 31 g ai/ha, scale 0 to 100): 85
- Mustard, Wild plant response rating ([12]; 62 g ai/ha): 100
- Mustard, Wild plant response rating ([12]; 125 g ai/ha): 100
- Plant response rating, Pigweed, Palmer ([13]; 16 g ai/ha, scale of 0 to 100): 20
- Plant response rating, Pigweed, Palmer ([13]; 31 g ai/ha, scale 0 to 100): 45
- Pigweed, Palmer plant response rating ([13]; 62 g ai/ha): 50
- Pigweed, Palmer plant response rating ([13]; 125 g ai/ha): 70

Compound: N#Cc1cccc(Oc2ncc(Cl)cn2)c1CCCC(F)(F)F [Compound 72]
- Plant response rating, Pigweed ([14]; 125 g ai/ha, scale of 0 to 100): 100
- Plant response rating, Pigweed ([14]; 16 g ai/ha, scale 0 to 100): 100
- Plant response rating, Pigweed ([14]; 31 g ai/ha, scale 0 to 100): 100
- Plant response rating, Pigweed ([14]; 62 g ai/ha, scale 0 to 100): 100
- Plant response rating, Johnsongrass ([15]; 16 g ai/ha, scale 0 to 100): 5
- Plant response rating, Johnsongrass ([15]; 31 g ai/ha, scale 0 to 100): 65
- Plant response rating, Johnsongrass ([15]; 62 g ai/ha, scale 0 to 100): 70
- Plant response rating, Johnsongrass ([15]; 125 g ai/ha, scale of 0 to 100): 100
- Plant response rating, Johnsongrass ([10]; 16 g ai/ha, scale 0 to 100): 5
- Plant response rating, Johnsongrass ([10]; 31 g ai/ha, scale 0 to 100): 10
- Johnsongrass plant response rating ([10]; 62 g ai/ha): 10
- Johnsongrass plant response rating ([10]; 125 g ai/ha): 10
- Plant response rating, Pigweed ([16]; 16 g ai/ha): 80
- Plant response rating, Pigweed ([16]; 31 g ai/ha): 85
- Pigweed plant response rating ([16]; 62 g ai/ha): 85
- Pigweed plant response rating ([16]; 125 g ai/ha): 100

Compound: N#Cc1cccc(Oc2ncc(Cl)cn2)c1CCCCC(F)(F)F [Compound 73, 3-[(5-chloro-2-pyrimidinyl)oxy]-2-(5,5,5-trifluoropentyl)benzonitrile]
- Plant response rating, Pigweed ([14]; 125 g ai/ha, scale of 0 to 100): 100
- Plant response rating, Pigweed ([14]; 16 g ai/ha, scale 0 to 100): 90
- Plant response rating, Pigweed ([14]; 31 g ai/ha, scale 0 to 100): 95
- Plant response rating, Pigweed ([14]; 62 g ai/ha, scale 0 to 100): 100
- Plant response rating, Johnsongrass ([15]; 16 g ai/ha, scale 0 to 100): 0
- Plant response rating, Johnsongrass ([15]; 31 g ai/ha, scale 0 to 100): 40
- Plant response rating, Johnsongrass ([15]; 62 g ai/ha, scale 0 to 100): 80
- Plant response rating, Johnsongrass ([15]; 125 g ai/ha, scale of 0 to 100): 95
- Plant response rating, Johnsongrass ([10]; 16 g ai/ha, scale 0 to 100): 5
- Plant response rating, Johnsongrass ([10]; 31 g ai/ha, scale 0 to 100): 10
- Johnsongrass plant response rating ([10]; 62 g ai/ha): 20
- Johnsongrass plant response rating ([10]; 125 g ai/ha): 20
- pest or weed control at 16 g/ha ([16]; 16 g ai/ha): 90%
- pest or weed control at 31 g/ha ([16]; 31 g ai/ha): 85%
- pest or weed control at 62 g/ha ([16]; 62 g ai/ha): 100%
- pest or weed control at 125 g/ha ([16]; 125 g ai/ha): 100%

Compound: O=C(OCCC(F)(F)F)c1c(Br)cccc1Oc1ncc(Cl)cn1 [Compound 26, 3,3,3-trifluoropropyl 2-bromo-6-[(5-chloro-2-pyrimidinyl)oxy]benzoate]
- Plant response rating, Pigweed ([14]; 125 g ai/ha, scale of 0 to 100): 100
- Plant response rating, Pigweed ([14]; 16 g ai/ha, scale 0 to 100): 100
- Plant response rating, Pigweed ([14]; 31 g ai/ha, scale 0 to 100): 100
- Plant response rating, Pigweed ([14]; 62 g ai/ha, scale 0 to 100): 100
- Plant response rating, Johnsongrass ([15]; 16 g ai/ha, scale 0 to 100): 55
- Plant response rating, Johnsongrass ([15]; 31 g ai/ha, scale 0 to 100): 50
- Plant response rating, Johnsongrass ([15]; 62 g ai/ha, scale 0 to 100): 80
- Plant response rating, Johnsongrass ([15]; 125 g ai/ha, scale of 0 to 100): 98
- Plant response rating, Johnsongrass ([10]; 16 g ai/ha, scale 0 to 100): 10
- Plant response rating, Johnsongrass ([10]; 31 g ai/ha, scale 0 to 100): 20
- Johnsongrass plant response rating ([10]; 62 g ai/ha): 20
- Johnsongrass plant response rating ([10]; 125 g ai/ha): 25
- pest or weed control at 16 g/ha ([16]; 16 g ai/ha): 75%
- pest or weed control at 31 g/ha ([16]; 31 g ai/ha): 98%
- pest or weed control at 62 g/ha ([16]; 62 g ai/ha): 98%
- pest or weed control at 125 g/ha ([16]; 125 g ai/ha): 100%
